Measured values taken from ChEMBL document CHEMBL1137403, “Discovery of 2-[4-{{2-(2S,5R)-2-cyano-5-ethynyl-1-pyrrolidinyl]-2-oxoethyl]amino]- 4-methyl-1-piperidinyl]-4-pyridinecarboxylic acid (ABT-279): a very potent, selective, effective, and well-tolerated inhibitor of dipeptidyl peptidase-IV, useful for the treatment of diabetes” (J Med Chem, 2006).

Columns and labels:
Dipeptidyl peptidase 9 = Dipeptidyl peptidase 9 (Homo sapiens, UniProt Q86TI2)
Dipeptidyl peptidase 8 = Dipeptidyl peptidase 8 (Homo sapiens, UniProt Q6V1X1)
Dipeptidyl peptidase 2 = Dipeptidyl peptidase 2 (Homo sapiens, UniProt Q9UHL4); assay: Inhibition of DPP7
Prolyl endopeptidase FAP = target: T1, Prolyl endopeptidase FAP (Homo sapiens, UniProt Q12884); assay: Inhibition of FAPalpha
T1 sequence (Q12884 whole entry): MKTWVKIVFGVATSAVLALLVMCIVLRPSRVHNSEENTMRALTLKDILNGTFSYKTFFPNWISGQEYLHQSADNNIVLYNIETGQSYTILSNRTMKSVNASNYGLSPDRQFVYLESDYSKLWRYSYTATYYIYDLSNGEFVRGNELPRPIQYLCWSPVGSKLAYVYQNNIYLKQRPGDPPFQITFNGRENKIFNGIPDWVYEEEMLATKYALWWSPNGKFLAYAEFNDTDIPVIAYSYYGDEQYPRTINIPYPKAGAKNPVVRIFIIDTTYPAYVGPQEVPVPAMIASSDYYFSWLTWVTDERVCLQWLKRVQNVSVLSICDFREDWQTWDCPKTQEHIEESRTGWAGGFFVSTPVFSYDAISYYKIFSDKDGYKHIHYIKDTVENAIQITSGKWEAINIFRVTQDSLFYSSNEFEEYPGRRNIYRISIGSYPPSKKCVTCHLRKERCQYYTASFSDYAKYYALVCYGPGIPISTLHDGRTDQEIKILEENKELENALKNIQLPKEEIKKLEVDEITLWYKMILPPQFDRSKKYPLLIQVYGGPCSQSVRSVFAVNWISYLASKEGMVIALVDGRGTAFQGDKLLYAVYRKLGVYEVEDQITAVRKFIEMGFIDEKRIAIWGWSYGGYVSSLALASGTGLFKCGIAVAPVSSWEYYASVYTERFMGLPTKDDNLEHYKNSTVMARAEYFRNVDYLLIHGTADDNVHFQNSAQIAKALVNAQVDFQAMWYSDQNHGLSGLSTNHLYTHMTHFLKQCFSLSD

Prolyl endopeptidase = target: T2, Prolyl endopeptidase (Homo sapiens, UniProt P48147); assay: Inhibition of POP
T2 sequence (P48147 whole entry): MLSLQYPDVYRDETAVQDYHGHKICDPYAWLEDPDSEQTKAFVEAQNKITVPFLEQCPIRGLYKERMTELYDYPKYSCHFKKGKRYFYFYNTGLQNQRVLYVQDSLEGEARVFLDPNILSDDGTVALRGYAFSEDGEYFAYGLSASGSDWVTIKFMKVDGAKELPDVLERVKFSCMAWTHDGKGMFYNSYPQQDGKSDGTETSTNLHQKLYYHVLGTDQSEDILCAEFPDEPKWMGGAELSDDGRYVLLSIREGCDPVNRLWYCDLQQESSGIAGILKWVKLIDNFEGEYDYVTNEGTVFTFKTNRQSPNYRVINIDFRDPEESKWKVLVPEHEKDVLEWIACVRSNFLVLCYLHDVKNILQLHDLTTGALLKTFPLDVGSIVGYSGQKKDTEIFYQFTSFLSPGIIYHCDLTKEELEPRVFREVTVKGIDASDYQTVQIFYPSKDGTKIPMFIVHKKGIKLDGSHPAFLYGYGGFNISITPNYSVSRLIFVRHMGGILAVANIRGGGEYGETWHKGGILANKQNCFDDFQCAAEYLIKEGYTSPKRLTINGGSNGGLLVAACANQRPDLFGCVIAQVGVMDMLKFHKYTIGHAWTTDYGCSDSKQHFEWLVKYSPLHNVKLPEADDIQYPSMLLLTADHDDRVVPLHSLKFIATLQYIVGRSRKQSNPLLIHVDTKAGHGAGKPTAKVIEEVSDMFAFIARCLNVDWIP

Measured: Ki

Dipeptidyl peptidase 8, sequence (Q6V1X1 whole entry): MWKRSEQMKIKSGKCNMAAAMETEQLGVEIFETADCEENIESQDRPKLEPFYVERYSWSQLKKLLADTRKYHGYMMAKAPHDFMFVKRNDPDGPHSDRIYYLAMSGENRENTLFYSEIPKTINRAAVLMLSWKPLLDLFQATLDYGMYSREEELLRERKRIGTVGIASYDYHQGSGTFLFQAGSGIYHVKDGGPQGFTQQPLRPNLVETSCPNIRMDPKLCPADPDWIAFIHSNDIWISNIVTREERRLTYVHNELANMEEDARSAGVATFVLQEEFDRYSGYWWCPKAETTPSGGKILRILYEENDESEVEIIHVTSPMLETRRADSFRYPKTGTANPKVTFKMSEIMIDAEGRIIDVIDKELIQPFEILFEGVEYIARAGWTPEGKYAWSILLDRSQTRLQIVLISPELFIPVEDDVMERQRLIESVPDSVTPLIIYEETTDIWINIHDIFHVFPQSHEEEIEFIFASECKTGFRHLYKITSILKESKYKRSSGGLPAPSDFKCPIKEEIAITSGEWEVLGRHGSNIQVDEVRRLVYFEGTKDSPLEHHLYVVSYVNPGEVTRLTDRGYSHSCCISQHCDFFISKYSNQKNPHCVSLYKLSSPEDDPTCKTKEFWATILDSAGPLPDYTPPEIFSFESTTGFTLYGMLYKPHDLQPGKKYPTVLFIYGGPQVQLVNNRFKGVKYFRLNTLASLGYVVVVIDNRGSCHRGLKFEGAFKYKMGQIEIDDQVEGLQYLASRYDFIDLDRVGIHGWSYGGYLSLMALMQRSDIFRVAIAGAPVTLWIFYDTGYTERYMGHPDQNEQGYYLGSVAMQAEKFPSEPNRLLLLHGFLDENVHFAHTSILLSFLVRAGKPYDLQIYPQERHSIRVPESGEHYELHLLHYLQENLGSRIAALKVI
Dipeptidyl peptidase 9, sequence (Q86TI2 whole entry): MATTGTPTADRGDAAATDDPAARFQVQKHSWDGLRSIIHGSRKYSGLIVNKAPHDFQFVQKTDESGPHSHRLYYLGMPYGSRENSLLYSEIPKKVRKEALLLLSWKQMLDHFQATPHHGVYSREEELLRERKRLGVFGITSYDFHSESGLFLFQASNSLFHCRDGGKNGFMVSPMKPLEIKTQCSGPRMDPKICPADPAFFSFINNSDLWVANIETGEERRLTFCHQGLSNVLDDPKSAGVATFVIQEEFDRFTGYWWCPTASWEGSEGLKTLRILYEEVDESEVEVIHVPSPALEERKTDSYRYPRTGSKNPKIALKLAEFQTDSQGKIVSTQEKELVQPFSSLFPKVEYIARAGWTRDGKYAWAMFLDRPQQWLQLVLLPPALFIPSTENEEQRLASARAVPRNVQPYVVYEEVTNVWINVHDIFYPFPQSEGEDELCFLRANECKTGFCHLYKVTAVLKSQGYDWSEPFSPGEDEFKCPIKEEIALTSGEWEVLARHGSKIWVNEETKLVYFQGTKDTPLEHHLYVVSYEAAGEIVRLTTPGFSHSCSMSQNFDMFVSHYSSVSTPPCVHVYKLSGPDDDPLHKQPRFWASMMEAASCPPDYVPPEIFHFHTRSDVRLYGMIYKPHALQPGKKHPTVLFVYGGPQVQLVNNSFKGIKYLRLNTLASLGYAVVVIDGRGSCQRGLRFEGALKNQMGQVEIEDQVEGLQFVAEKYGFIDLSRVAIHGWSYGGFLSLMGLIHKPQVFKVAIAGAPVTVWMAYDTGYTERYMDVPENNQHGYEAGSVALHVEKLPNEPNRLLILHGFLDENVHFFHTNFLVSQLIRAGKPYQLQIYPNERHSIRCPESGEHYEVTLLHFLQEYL

C#C[C@H]1CC[C@@H](C#N)N1C(=O)CNC(C)(C)C
> 30 µM: Dipeptidyl peptidase 9 | Dipeptidyl peptidase 8

C#C[C@H]1CC[C@@H](C#N)N1C(=O)CNC1(C)CCN(c2ccc(C(=O)O)cn2)CC1
> 30 µM: all assays above

C#C[C@H]1CC[C@@H](C#N)N1C(=O)CNC1(C)CCN(c2ccc(C#N)cn2)CC1
> 30 µM: all assays above

C#C[C@H]1CC[C@@H](C#N)N1C(=O)CNC12CC3CC(CC(O)(C3)C1)C2
> 30 µM: Dipeptidyl peptidase 9 | Dipeptidyl peptidase 8
